Read-outs that look alike come from different tables or passages of the source.
Columns and labels:
[1] = cited from earlier work
[2] = emulsion containing 5 wt. % of EHMC; cited from earlier work
[3] = Specific extinction E 1%/1 cm of the UV filter; format: physicochemical; settings: EHS versus EHMC
Excerpt: 2-Ethylhexyl p-methoxycinnamate (ethylhexyl p-methoxycinnamate, CAS no.: 5466-77-3; USAN: Octinoxate, Neo Heliopan® AV (Symrise trade mark); hereafter abbreviated to EHMC) is a liquid, oil-soluble UV-B filter with a specific extinction E 1%/1 cm at 308 nm of approx. 850 (cf. H&R Contact no. 51, January 1991, pages 3-8). 2-Ethylhexyl p-methoxycinnamate is also frequently abbreviated to octyl methoxycinnamate (OMC) in the literature.
2-Ethylhexyl salicylate (CAS no.: 118-60-5; USAN: Octisalate, Neo Heliopan® OS (Symrise trade mark); hereafter abbreviated to EHS) is likewise a liquid, oil-soluble UV-B filter with a specific extinction E 1%/1 cm at 305 nm of approx. 180 (cf. H&R Contact no. 51, January 1991, pages 3-8). The specific extinction of EHS is lower than that of EHMC by a factor of about 5.
The specific extinction of UV filters is of primary importance as an index for assessing the efficacy in respect of the achievable light protection factor (LPF, hereafter also SPF (sun protection factor)). […] The light protection factor of a (light protection) formulation is a measure of the UV-B protection it can achieve. The absolute SPF values also depend within certain limits on the cosmetic base formulation used.

Row | specific extinction lower than that of EHMC by a factor [3] | SMILES | specific extinction E 1%/1 cm ([1]; at 308 nm) | SPF (in vitro measurement) [2] | specific extinction E 1%/1 cm ([1]; at 305 nm)
1 | – | CCCCC(CC)COC(=O)C=Cc1ccc(OC)cc1 (stereo not shown) [EHMC, 2-Ethylhexyl p-methoxycinnamate] | approx. 850 | 10.1 | –
2 | about 5 | CCCCC(CC)COC(=O)c1ccccc1O (stereo not shown) [EHS, 2-Ethylhexyl salicylate] | – | – | approx. 180

— US20090053154A1, “MIXTURES OF ETHYLHEXYL P-METHOXYCINNAMATE AND ETHYLHEXYL SALICYLATE” (SYMRISE GmbH & Co. KG, priority 2005, published 2009)
